Columns and labels:
[1] = Cytotoxicity against human MOLT4 cells assessed as growth level at 10 uM after 48 hrs by SRB assay; assay type: functional, MOLT-4
[2] = Cytotoxicity against human RPMI8226 cells assessed as growth level at 10 uM after 48 hrs by SRB assay; assay type: functional, RPMI-8226
SR = experiment: Cytotoxicity against human SR cells assessed as growth level at 10 uM after 48 hrs by SRB assay; assay type: functional
[3] = Cytotoxicity against human HOP62 cells assessed as growth level at 10 uM after 48 hrs by SRB assay; assay type: functional, HOP-62
NCI-H23 [4] = experiment: Cytotoxicity against human NCI-H23 cells assessed as growth level at 10 uM after 48 hrs by SRB assay; assay type: functional
NCI-H460 = experiment: Cytotoxicity against human NCI-H460 cells assessed as growth level at 10 uM after 48 hrs by SRB assay; assay type: functional
NCI-H522 [5] = experiment: Cytotoxicity against human NCI-H522 cells assessed as growth level at 10 uM after 48 hrs by SRB assay; assay type: functional
[6] = Cytotoxicity against human HCC2998 cells assessed as growth level at 10 uM after 48 hrs by SRB assay; assay type: functional, HCC 2998
[7] = Cytotoxicity against human HCT15 cells assessed as growth level at 10 uM after 48 hrs by SRB assay; assay type: functional, HCT-15
HT-29 = experiment: Cytotoxicity against human HT-29 cells assessed as growth level at 10 uM after 48 hrs by SRB assay; assay type: functional
[8] = Cytotoxicity against human SW620 cells assessed as growth level at 10 uM after 48 hrs by SRB assay; assay type: functional, SW-620
[9] = Cytotoxicity against human SF539 cells assessed as growth level at 10 uM after 48 hrs by SRB assay; assay type: functional, SF-539
[10] = Cytotoxicity against human SNB75 cells assessed as growth level at 10 uM after 48 hrs by SRB assay; assay type: functional, SNB-75
[11] = Cytotoxicity against human LOXIMVI cells assessed as growth level at 10 uM after 48 hrs by SRB assay; assay type: functional, LOX IMVI
SK-MEL-5 [12] = experiment: Cytotoxicity against human SK-MEL-5 cells assessed as growth level at 10 uM after 48 hrs by SRB assay; assay type: functional
[13] = Cytotoxicity against human IGROV1 cells assessed as growth level at 10 uM after 48 hrs by SRB assay; assay type: functional, IGROV-1
[14] = Cytotoxicity against human OVCAR5 cells assessed as growth level at 10 uM after 48 hrs by SRB assay; assay type: functional, OVCAR-5
[15] = Cytotoxicity against human SKOV3 cells assessed as growth level at 10 uM after 48 hrs by SRB assay; assay type: functional, SK-OV-3
[16] = Cytotoxicity against human RXF393 cells assessed as growth level at 10 uM after 48 hrs by SRB assay; assay type: functional, RXF 393
SN12C = experiment: Cytotoxicity against human SN12C cells assessed as growth level at 10 uM after 48 hrs by SRB assay; assay type: functional
[17] = Cytotoxicity against human PC3 cells assessed as growth level at 10 uM after 48 hrs by SRB assay; assay type: functional, PC-3
[18] = Cytotoxicity against human DU145 cells assessed as growth level at 10 uM after 48 hrs by SRB assay; assay type: functional, DU-145
[19] = Cytotoxicity against human Hs578T cells assessed as growth level at 10 uM after 48 hrs by SRB assay; assay type: functional, Hs-578T
T47D [20] = experiment: Cytotoxicity against human T47D cells assessed as growth level at 10 uM after 48 hrs by SRB assay; assay type: functional
[21] = Cytotoxicity against human HL-60(TB) cells assessed as growth inhibition at 10 uM after 48 hrs by SRB assay; assay type: functional; conditions: HL-60, 48 h, read-out: GI
[22] = Cytotoxicity against human HOP62 cells assessed as growth inhibition at 10 uM after 48 hrs by SRB assay; assay type: functional; conditions: HOP-62, 48 h, read-out: GI
NCI-H23 [23] = experiment: Cytotoxicity against human NCI-H23 cells assessed as growth inhibition at 10 uM after 48 hrs by SRB assay; assay type: functional; conditions: NCI-H23, 48 h, read-out: GI
NCI-H522 [24] = experiment: Cytotoxicity against human NCI-H522 cells assessed as growth inhibition at 10 uM after 48 hrs by SRB assay; assay type: functional; conditions: NCI-H522, 48 h, read-out: GI
[25] = Cytotoxicity against human COLO205 cells assessed as growth inhibition at 10 uM after 48 hrs by SRB assay; assay type: functional; conditions: COLO 205, 48 h, read-out: GI
[26] = Cytotoxicity against human HCC2998 cells assessed as growth inhibition at 10 uM after 48 hrs by SRB assay; assay type: functional; conditions: HCC 2998, 48 h, read-out: GI
KM12 = experiment: Cytotoxicity against human KM12 cells assessed as growth inhibition at 10 uM after 48 hrs by SRB assay; assay type: functional; conditions: KM12, 48 h, read-out: GI
[27] = Cytotoxicity against human SNB75 cells assessed as growth inhibition at 10 uM after 48 hrs by SRB assay; assay type: functional; conditions: SNB-75, 48 h, read-out: GI
U-251 = experiment: Cytotoxicity against human U251 cells assessed as growth inhibition at 10 uM after 48 hrs by SRB assay; assay type: functional; conditions: U-251, 48 h, read-out: GI
Malme-3M = experiment: Cytotoxicity against human MALME-3M cells assessed as growth inhibition at 10 uM after 48 hrs by SRB assay; assay type: functional; conditions: read-out: GI
SK-MEL-5 [28] = experiment: Cytotoxicity against human SK-MEL-5 cells assessed as growth inhibition at 10 uM after 48 hrs by SRB assay; assay type: functional; conditions: SK-MEL-5, 48 h, read-out: GI
[29] = Cytotoxicity against human UACC257 cells assessed as growth inhibition at 10 uM after 48 hrs by SRB assay; assay type: functional; conditions: UACC-257, 48 h, read-out: GI
[30] = Cytotoxicity against human Caki1 cells assessed as growth inhibition at 10 uM after 48 hrs by SRB assay; assay type: functional; conditions: CAKI-1, 48 h, read-out: GI
[31] = Cytotoxicity against human RXF393 cells assessed as growth inhibition at 10 uM after 48 hrs by SRB assay; assay type: functional; conditions: RXF 393, 48 h, read-out: GI
[32] = Cytotoxicity against human DU145 cells assessed as growth inhibition at 10 uM after 48 hrs by SRB assay; assay type: functional; conditions: DU-145, 48 h, read-out: GI
MCF7 = experiment: Cytotoxicity against human MCF7 cells assessed as growth inhibition at 10 uM after 48 hrs by SRB assay; assay type: functional; conditions: MCF7, 48 h, read-out: GI
[33] = Cytotoxicity against human Hs578T cells assessed as growth inhibition at 10 uM after 48 hrs by SRB assay; assay type: functional; conditions: Hs-578T, read-out: GI
[34] = Cytotoxicity against human BT549 cells assessed as growth inhibition at 10 uM after 48 hrs by SRB assay; assay type: functional; conditions: BT-549, 48 h, read-out: GI
T47D [35] = experiment: Cytotoxicity against human T47D cells assessed as growth inhibition at 10 uM after 48 hrs by SRB assay; assay type: functional; conditions: read-out: GI
CCRF-CEM = experiment: Cytotoxicity against human CCRF-CEM cells assessed as growth level at 10 uM after 48 hrs by SRB assay; assay type: functional
[36] = Cytotoxicity against human HL-60(TB) cells assessed as growth level at 10 uM after 48 hrs by SRB assay; assay type: functional

`C=C1CC[C@@H]2[C@](C)(COC(C)=O)[C@H](OC(C)=O)CC[C@@]2(C)[C@@H]1CC(NC1CCCC1)C1=CCOC1=O` (stereo partly drawn) showed an Activity [1] of 42.41%, an Activity [2] of 37.5% and an Activity (SR) of 19.62%. The Activity [3] was 94.41%, the Activity (NCI-H23 [4]) was 62.53% and the Activity (NCI-H460) was 74.77%. It also gave an Activity (NCI-H522 [5]) of 45.56%, an Activity [6] of 90.35% and an Activity [7] of 67.03%. For the same compound, the Activity (HT-29) was 75.54%, the Activity [8] was 67.48% and the Activity [9] was 89.44%. The Activity [10] was 68.03%, the Activity [11] was 68.48% and the Activity (SK-MEL-5 [12]) was 34.29%. For the same compound, the Activity [13] was 88.25%, the Activity [14] was 105.62% and the Activity [15] was 87.88%. For the same compound, the Activity [16] was 78.03%, the Activity (SN12C) was 78.46% and the Activity [17] was 44.7%. It also gave an Activity [18] of 91.96%, an Activity [19] of 74.91% and an Activity (T47D [20]) of 50.85%. For the same compound, the inhibition of growth at 10 µM [21] was 57.3%, the inhibition of growth at 10 µM [22] was 5.59% and the inhibition of growth at 10 µM (NCI-H23 [23]) was 37.5%. For the same compound, the inhibition of growth at 10 µM (NCI-H522 [24]) was 54.4%, the inhibition of growth at 10 µM [25] was 24.8% and the inhibition of growth at 10 µM [26] was 9.65%. It also gave an inhibition of growth at 10 µM (KM12) of 25.5%, an inhibition of growth at 10 µM [27] of 32% and an inhibition of growth at 10 µM (U-251) of 24.6%. For the same compound, the inhibition of growth at 10 µM (Malme-3M) was 15.4%, the inhibition of growth at 10 µM (SK-MEL-5 [28]) was 65.7% and the inhibition of growth at 10 µM [29] was 61.6%. For the same compound, the inhibition of growth at 10 µM [30] was 39.3%, the inhibition of growth at 10 µM [31] was 22% and the inhibition of growth at 10 µM [32] was 8.04%. For the same compound, the inhibition of growth at 10 µM (MCF7) was 27.6%, the inhibition of growth at 10 µM [33] was 25.1% and the inhibition of growth at 10 µM [34] was 44.4%. For the same compound, the inhibition of growth at 10 µM (T47D [35]) was 49.1%, the Activity (CCRF-CEM) was 63.47% and the Activity [36] was 42.67%.

For `C=C1CC[C@@H]2[C@](C)(COC(C)=O)[C@H](OC(C)=O)CC[C@@]2(C)[C@@H]1CC(NCc1cccc(Cl)c1)C1=CCOC1=O` (mixture of isomers), the Activity [1] was 21.89%, the Activity [2] was 27.25% and the Activity (SR) was 11.54%. For the same compound, the Activity [3] was 56%, the Activity (NCI-H23 [4]) was 52.71% and the Activity (NCI-H460) was 34.79%. It also gave an Activity (NCI-H522 [5]) of 52.45%, an Activity [6] of 84.55% and an Activity [7] of 37.72%. It also gave an Activity (HT-29) of 25.54%, an Activity [8] of 38.27% and an Activity [9] of 74.12%. It also gave an Activity [10] of 85.86%, an Activity [11] of 12.71% and an Activity [13] of 64.14%. The Activity [14] was 99.69%, the Activity [15] was 73.11% and the Activity [16] was 50.51%. It also gave an Activity (SN12C) of 62.07%, an Activity [17] of 30.08% and an Activity [18] of 81.85%. The Activity [19] was 94.35%, the Activity (T47D [20]) was 50.73% and the inhibition of growth at 10 µM [21] was 78.4%. For the same compound, the inhibition of growth at 10 µM [22] was 44%, the inhibition of growth at 10 µM (NCI-H23 [23]) was 47.3% and the inhibition of growth at 10 µM (NCI-H522 [24]) was 47.5%. The inhibition of growth at 10 µM [25] was 63.2%, the inhibition of growth at 10 µM [26] was 15.4% and the inhibition of growth at 10 µM (KM12) was 53.2%. For the same compound, the inhibition of growth at 10 µM [27] was 14.1%, the inhibition of growth at 10 µM (U-251) was 69.1% and the inhibition of growth at 10 µM (Malme-3M) was 23.9%. It also gave an inhibition of growth at 10 µM [29] of 74.8%, an inhibition of growth at 10 µM [30] of 51.7% and an inhibition of growth at 10 µM [31] of 49.5%. It also gave an inhibition of growth at 10 µM [32] of 18.1%, an inhibition of growth at 10 µM (MCF7) of 57% and an inhibition of growth at 10 µM [33] of 5.65%. It also gave an inhibition of growth at 10 µM [34] of 50.3%, an inhibition of growth at 10 µM (T47D [35]) of 49.3% and an Activity (CCRF-CEM) of 42.29%. For the same compound, the Activity [36] was 21.57%.

— ChEMBL document CHEMBL3734705, “Synthesis and in vitro cytotoxicity of novel C-12 substituted-14-deoxy-andrographolide derivatives as potent anti-cancer agents” (2015)
